Columns and labels:
[1] = test system: lambsquarters (Chenopodium album); assay: Test F pre-/postemergence: lambsquarters; assay type: in vivo; conditions: Preemergence
Excerpt: (§1) Seeds of plant species selected from corn (Zea mays), soybean (Glycine max), velvetleaf (Abutilon theophrasti), lambsquarters (Chenopodium album), poinsettia, wild (wild poinsettia, Euphorbia heterophylla), pigweed, palmer (palmer pigweed, Amaranthus palmeri), waterhemp (common waterhemp, Amaranthus rudis), surinam grass (Brachiaria decumbens), crabgrass, Brazil (Brazilian crabgrass, Digitaria horizontalis), panicum, fall (fall panicum Panicum dichotomiflorum), crabgrass, large (large crabgrass, Digitaria sanguinalis), foxtail, giant (giant foxtail, Setaria faberii), foxtail, green (green foxtail Setaria viridis), goosegrass (Eleusine indica), ragweed (common ragweed, Ambrosia elatior), barnyardgrass (Echinochloa crus-galli), sandbur (southern sandbur, Cenchrus echinatus), arrowleaf sida (Sida rhombifolia), ryegrass, Italian (Italian ryegrass, Lolium multiflorum), dayflower, VA (Virginia (VA) dayflower, Commelina virginica), field bindweed (Convolvulus arvensis), cocklebur (common cocklebur, Xanthium strumarium), morningglory (Ipomoea coccinea), nightshade (eastern black nightshade, Solanum ptycanthum), kochia (Kochia scoparia), nutsedge, yellow (yellow nutsedge, Cyperus esculentus), johnsongrass (Sorghum halepense), smartweed (ladysthumb smartweed, Polygonum persicaria), and beggarticks (hairy beggarticks, Bidens pilosa), were planted into a silt loam soil and treated preemergence with test chemicals formulated in a non-phytotoxic solvent mixture which included a surfactant. At the same time, plants selected from these crop and weed species and also pigweed (Amaranthus retroflexus), waterhemp_RES1 (ALS/Triazine resistant common waterhemp, Amaranthus rudis) and waterhemp_RES2 (ALS/HPPD resistant common waterhemp, Amaranthus rudis) were planted in pots containing a planting medium comprising spaghnum peat moss, vermiculite, wetting agent and starter nutrients treated with postemergence applications of some of the test chemicals formulated in the same manner. Plants ranged in height from 2 to 18 cm for postemergence treatments (1- to 4-leaf stage).
(§2) Treated plants and controls were maintained in a greenhouse for 14 to 21 days, after which time all species were compared to controls and visually evaluated. Plant response ratings, summarized in Table E, are based on a scale of 0 to 100 where 0 is no effect and 100 is complete control. A dash (-) response means no test result.

[2] = test system: ryegrass, Italian (Italian ryegrass, Lolium multiflorum); assay: Test F pre-/postemergence: ryegrass, Italian; assay type: in vivo
Excerpt: as §1, §2

[3] = test system: Oilseed Rape; assay: Test C postemergence: oilseed rape; assay type: in vivo, Brassica napus
Excerpt: Seeds of plant species selected from blackgrass (Alopecurus myosuroides), bromegrass, downy (downy bromegrass, Bromus tectorum), foxtail, green (green foxtail, Setaria viridis), ryegrass, Italian (Italian ryegrass, Lolium multiflorum), winter wheat (Triticum aestivum), wild oat (Avena fatua), galium (catchweed bedstraw, Galium aparine), bermudagrass (Cynodon dactylon), surinam grass (Brachiaria decumbens), cocklebur (common cocklebur, Xanthium strumarium), corn (Zea mays), large crabgrass (Digitaria sanguinalis), woolly cupgrass (Eriochloa villosa), foxtail, giant (giant foxtail, Setaria faberii), goosegrass (Eleusine indica), johnsongrass (Sorghum halepense), kochia (Kochia scoparia), lambsquarters (Chenopodium album), morningglory (Ipomoea coccinea), nightshade (eastern black nightshade, Solanum ptycanthum), nutsedge, yellow (yellow nutsedge, Cyperus esculentus), pigweed (Amaranthus retroflexus), ragweed (common ragweed, Ambrosia elation), soybean (Glycine max), common (oilseed) sunflower (Helianthus annuus), Russian thistle (Salsola kali) and velvetleaf (Abutilon theophrasti) were planted into a blend of loam soil and sand and treated preemergence with test chemicals formulated in a non-phytotoxic solvent mixture which included a surfactant.
At the same time, plants selected from these crop and weed species and also barley (winter barley, Hordeum vulgare), canarygrass (Phalaris minor), chickweed (common chickweed, Stellaria media) windgrass (Apera spica-venti) and deadnettle (henbit deadnettle, Lamium amplexicaule) were planted in pots containing Redi-Earth® planting medium (Scotts Company, 14111 Scottslawn Road, Marysville, Ohio 43041) comprising spaghnum peat moss, vermiculite, wetting agent and starter nutrients and treated with postemergence applications of test chemicals formulated in the same manner. Plants ranged in height from 2 to 18 cm (1- to 4-leaf stage) for postemergence treatments.
as §2, with “13” for “14”, “15” for “21”, “C,” for “E,”

[4] = test system: Oilseed Rape; assay: Test C preemergence: oilseed rape; assay type: in vivo, Brassica napus; conditions: 125 g ai/ha, scale 0 to 100, 0 no effect, 100 complete control
[5] = test system: beggarticks (hairy beggarticks, Bidens pilosa); assay: Test F pre-/postemergence: beggarticks; assay type: in vivo
Excerpt: as §1, §2

[6] = test system: cocklebur (common cocklebur, Xanthium strumarium); assay: Test E pre-/postemergence: cocklebur; assay type: in vivo; conditions: Preemergence, scale 0 to 100
Excerpt: (§3) Seeds of plant species selected from corn (Zea mays), soybean (Glycine max), velvetleaf (Abutilon theophrasti), lambsquarters (Chenopodium album), poinsettia, wild (wild poinsettia, Euphorbia heterophylla), pigweed, palmer (palmer pigweed, Amaranthus palmeri), waterhemp (common waterhemp, Amaranthus rudis), smartweed (ladysthumb smartweed, Polygonum persicaria), surinam grass (Brachiaria decumbens), crabgrass, large (large crabgrass, Digitaria sanguinalis), crabgrass, Brazil (Brazilian crabgrass, Digitaria horizontalis), panicum, fall (fall panicum, Panicum dichotomiflorum), foxtail, giant (giant foxtail, Setaria faberii), foxtail, green (green foxtail, Setaria viridis), goosegrass (Eleusine indica), johnsongrass (Sorghum halepense), ragweed (common ragweed, Ambrosia elation), barnyardgrass (Echinochloa crus-galli), sandbur (southern sandbur, Cenchrus echinatus), arrowleaf sida (Sida rhombifolia), ryegrass, Italian (Italian ryegrass, Lolium multiflorum), dayflower, (VA) (Virginia dayflower, Commelina virginica), field bindweed (Convolvulus arvensis), cocklebur (common cocklebur, Xanthium strumarium), morningglory (Ipomoea coccinea), nightshade (eastern black nightshade, Solanum ptycanthum), kochia (Kochia scoparia), nutsedge, yellow (yellow nutsedge, Cyperus esculentus) and beggarticks (hairy beggarticks, Bidens pilosa) were planted into a silt loam soil and treated preemergence with test chemicals formulated in a non-phytotoxic solvent mixture which included a surfactant. At the same time, plants selected from these crop and weed species were planted in pots containing a growing medium comprising spaghnum peat moss, vermiculite, wetting agent and starter nutrients and treated with postemergence applications of some of the test chemicals formulated in the same manner. Plants ranged in height from 2 to 18 cm for postemergence treatments (1- to 4-leaf stage).
as §2

[7] = test system: kochia (Kochia scoparia); assay: Test E pre-/postemergence: kochia; assay type: in vivo; conditions: Preemergence, scale 0 to 100
Excerpt: as §3, §2

[8] = 16 g ai/ha, scale 0 to 100 (0 no effect, 100 complete control)
[9] = 31 g ai/ha, scale 0 to 100 (0 no effect, 100 complete control)
[10] = Postemergence, 4 g ai/ha, scale 0 to 100
[11] = Postemergence, 8 g ai/ha, scale 0 to 100
[12] = Postemergence, 16 g ai/ha, scale 0 to 100
[13] = Postemergence, 31 g ai/ha, scale 0 to 100
[14] = Postemergence, 62 g ai/ha, scale 0 to 100
[15] = Preemergence, 4 g ai/ha, scale 0 to 100, 0 no effect, 100 complete control
[16] = Preemergence, 8 g ai/ha, scale 0 to 100, 0 no effect, 100 complete control
[17] = Preemergence, 16 g ai/ha, scale 0 to 100 (0 no effect, 100 complete control)
[18] = Preemergence, 31 g ai/ha, scale 0 to 100 (0 no effect, 100 complete control)
[19] = 125 g ai/ha, scale 0 to 100, 0 no effect, 100 complete control
[20] = Preemergence, 62 g ai/ha, scale 0 to 100
[21] = Preemergence, 125 g ai/ha, scale 0 to 100
[22] = Postemergence, 125 g ai/ha, scale 0 to 100

Row | Compound | Plant response rating, Lambsquarters [1, 8] | Plant response rating, Lambsquarters [1, 9] | Plant response rating, Lambsquarters ([1]; 62 g ai/ha, scale 0 to 100) | Plant response rating, Ryegrass, Italian [2, 17] | Plant response rating, Ryegrass, Italian [2, 18] | Plant response rating, Oilseed Rape [3, 19] | Plant response rating, Oilseed Rape [4] | Plant response rating, Beggarticks [5, 17] | Plant response rating, Beggarticks [5, 18] | Plant response rating, Beggarticks [5, 20] | Plant response rating: Cocklebur ([6]; 16 g ai/ha) | Plant response rating: Cocklebur ([6]; 31 g ai/ha) | Plant response rating: Cocklebur ([6]; 62 g ai/ha) | Plant response rating: Cocklebur ([6]; 125 g ai/ha) | Plant response rating: Kochia ([7]; 16 g ai/ha) | Plant response rating: Kochia ([7]; 31 g ai/ha) | Plant response rating: Kochia ([7]; 62 g ai/ha) | Plant response rating: Kochia ([7]; 125 g ai/ha) | further results
1 | Cc1nn(-c2ccc(C(F)(F)F)c(F)c2)nc1Cc1ccnc(C(F)(F)F)c1 [Compound 162] | 98 | 98 | 98 | 35 | 80 | 90 | 100 | 0 | 0 | 0 | – | – | – | – | – | – | – | – | Plant response rating, Lambsquarters ([1]; 4 g ai/ha, scale 0 to 100, 0 no effect, 100 complete control): 0; Plant response rating, Lambsquarters ([1]; 8 g ai/ha, scale 0 to 100, 0 no effect, 100 complete control): 0; Plant response rating, Ryegrass, Italian [2, 10]: 0; Plant response rating, Ryegrass, Italian [2, 11]: 0; Plant response rating, Ryegrass, Italian [2, 12]: 0; Plant response rating, Ryegrass, Italian [2, 13]: 0; Plant response rating, Ryegrass, Italian [2, 14]: 0; Plant response rating, Ryegrass, Italian [2, 15]: 0; Plant response rating, Ryegrass, Italian [2, 16]: 0; Plant response rating, Beggarticks [5, 10]: 15; Plant response rating, Beggarticks [5, 11]: 20; Plant response rating, Beggarticks [5, 12]: 25; Plant response rating, Beggarticks [5, 13]: 25; Plant response rating, Beggarticks [5, 14]: 30; Plant response rating, Beggarticks [5, 15]: 0; Plant response rating, Beggarticks [5, 16]: 0
2 | CCCc1nn(-c2ccc(C(F)(F)F)c(F)c2)nc1Oc1ccnc(C(F)(F)F)c1 [Compound 185] | – | – | – | – | – | 50 | 100 | – | – | – | – | – | – | – | – | – | – | – | Plant response rating, Oilseed Rape ([3]; 250 g ai/ha, scale 0 to 100 (0 no effect, 100 complete control)): 55
3 | Cc1nn(-c2ccc(C(F)(F)F)cc2)nc1Cc1ccnc(C(F)(F)F)c1 [Compound 47, 4-[[5-methyl-2-[4-(trifluoromethyl)phenyl]-2H-1,2,3-triazol-4-yl]methyl]-2-(trifluoromethyl)pyridine] | – | – | – | – | – | – | – | – | – | – | 0 | 10 | 20 | 35 | 25 | 35 | 100 | 100 | Plant response rating: Cocklebur ([6]; 250 g ai/ha): 50; Plant response rating: Kochia ([7]; 250 g ai/ha): 100
4 | CCCc1nn(-c2ccc(F)cc2)nc1Cc1ccnc(C(F)(F)F)c1 [Compound 153] | 0 | 65 | 98 | 5 | 5 | 90 | 98 | 0 | 25 | 35 | – | – | – | – | – | – | – | – | Plant response rating, Lambsquarters ([1]; 125 g ai/ha, scale 0 to 100): 98; Plant response rating, Lambsquarters ([1]; 250 g ai/ha, scale 0 to 100): 98; Plant response rating, Ryegrass, Italian [2, 21]: 65; Plant response rating, Ryegrass, Italian ([2]; Preemergence, 250 g ai/ha, scale 0 to 100): 95; Plant response rating, Beggarticks [5, 21]: 65
5 | CCOc1nn(-c2ccc(Br)cc2)nc1Cc1ccnc(C(F)(F)F)c1 [Compound 189] | – | – | – | – | – | – | 85 | – | – | – | – | – | – | – | – | – | – | – | –
6 | Cc1nn(-c2ccc(F)c(F)c2)nc1Oc1ccnc(C(F)(F)F)c1 [Compound 145] | – | – | – | – | – | – | – | – | – | – | – | – | – | – | – | – | – | – | Plant response rating, Ryegrass, Italian [2, 11]: 5; Plant response rating, Ryegrass, Italian [2, 12]: 10; Plant response rating, Ryegrass, Italian [2, 13]: 20; Plant response rating, Ryegrass, Italian [2, 14]: 30; Plant response rating, Ryegrass, Italian [2, 22]: 40; Plant response rating, Beggarticks [5, 11]: 10; Plant response rating, Beggarticks [5, 12]: 25; Plant response rating, Beggarticks [5, 13]: 30; Plant response rating, Beggarticks [5, 14]: 35; Plant response rating, Beggarticks [5, 22]: 45
7 | CCc1nn(-c2ccc(F)cc2)nc1Oc1ccnc(C(F)(F)F)c1 [Compound 166] | – | – | – | – | – | 5 | 90 | – | – | – | – | – | – | – | – | – | – | – | –
8 | Cc1nn(-c2ccc(F)cc2)nc1Oc1ccnc(C(F)(F)F)c1 [Compound 129, 4-[[2-(4-fluorophenyl)-5-methyl-2H-1,2,3-triazol-4-yl]oxy]-2-(trifluoromethyl)pyridine] | – | – | – | – | – | – | – | – | – | – | 0 | 0 | 35 | 35 | 35 | 50 | 95 | 95 | Plant response rating: Cocklebur ([6]; 8 g ai/ha): 0; Plant response rating: Kochia ([7]; 8 g ai/ha): 35
9 | Cc1nn(-c2ccc(F)cc2)nc1Cc1ccnc(C(F)(F)F)c1 [Compound 16, 4-[[2-(4-fluorophenyl)-5-methyl-2H-1,2,3-triazol-4-yl]methyl]-2-(trifluoromethyl)pyridine] | – | – | – | – | – | – | – | – | – | – | 0 | 0 | 0 | 0 | 20 | 70 | 100 | 100 | Plant response rating: Kochia ([7]; 8 g ai/ha): 0
10 | Fc1ccc(-n2nc(Cc3ccnc(C(F)(F)F)c3)c(OCC(F)(F)F)n2)cc1 [Compound 142] | 0 | 65 | 98 | 5 | 65 | – | – | 0 | 40 | 65 | – | – | – | – | – | – | – | – | Plant response rating, Lambsquarters ([1]; 125 g ai/ha, scale 0 to 100): 98; Plant response rating, Ryegrass, Italian [2, 21]: 100; Plant response rating, Beggarticks [5, 21]: 75
